Measurements as given in patent US10307413B2, “Tetrahydro- and dihydro-isoquinoline PRMT5 inhibitors and uses thereof” (Epizyme, Inc., priority 2013, dated 2019).

What was measured:
[1] = system: Z-138 cell line; experiment: Z-138 Proliferation Assay (Cell Titer Glo, 5 days); assay type: cell-based; conditions: Homo sapiens, 120 h; Z-138 cells, 5 days; read-out: Proliferation EC50
How it was run: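 Viability via CellTiter-Glo luminescence (ATP) after 5-day incubation at 37 °C, 5% CO2. Compounds tested in triplicate, nine 3-fold steps, highest final concentration 20 μM in 0.2% DMSO; 50% inhibitory concentration by 4-parameter fit of normalized curves.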

[2] = system: symmetric di-methyl arginine in Z-138 cells; experiment: Z-138 Methylation Assay (In Cell Western for symmetric di-methyl arginine and DNA content); assay type: cell-based; conditions: Homo sapiens, read-out: ICW EC50
How it was run: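 In-cell western: symmetric di-methyl arginine signal ratioed to DRAQ5 DNA content after 96 h compound exposure of Z-138 cells seeded at 50,000 cells/mL.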

| SMILES | EC50 [1] [nM] | EC50 [2] [nM] |
| --- | --- | --- |
| O=C(NCC(O)CN1CCc2ccccc2C1)c1ccn[nH]1 (stereo not shown) [Compound 148] | > 20000 | 1000 to 10000 |
| Cn1ccc(C(=O)NCC(O)CN2CCc3ccccc3C2)n1 (stereo not shown) [Compound 149] | > 20000 | 1000 to 10000 |
| Cn1nccc1C(=O)NCC(O)CN1CCc2ccccc2C1 (stereo not shown) [Compound 150] | > 20000 | 101 to 1000 |
| O=C(NCC(O)CN1CCc2ccccc2C1)c1cccc(CO)c1 (stereo not shown) [Compound 151] | > 20000 | 101 to 1000 |
| CC1CC(Nc2cccc(C(=O)NC[C@@H](O)CN3CCc4ccccc4C3)c2)CC(C)O1 (stereo partly shown) [Compound 153] | 101 to 1000 | < 100 |
| O=C(NCC(O)CN1CCc2ccccc2C1)c1cccc(C2CCOC2)c1 (stereo not shown) [Compound 154] | 1000 to 10000 | 101 to 1000 |
| COc1ccc2cc(C(=O)NCC(O)CN3CCc4ccccc4C3)ccc2n1 (stereo not shown) [Compound 155] | > 20000 | 1000 to 10000 |
| CC(=O)NCCN1CCN(Cc2cccc(C(=O)NCC(O)CN3CCc4ccccc4C3)c2)CC1 (stereo not shown) [Compound 156] | 1000 to 10000 | 101 to 1000 |
| O=C(O)CN1CCN(Cc2cccc(C(=O)NCC(O)CN3CCc4ccccc4C3)c2)CC1 (stereo not shown) [Compound 157] | > 20000 | 1000 to 10000 |
| NC(=O)CCCN1CCN(Cc2cccc(C(=O)NCC(O)CN3CCc4ccccc4C3)c2)CC1 (stereo not shown) [Compound 159] | 1000 to 10000 | 101 to 1000 |
| COc1cc(CN2CCN(C)CC2)cc(C(=O)NCC(O)CN2CCc3ccccc3C2)c1 (stereo not shown) [Compound 160] | 10000 to 50000 | 101 to 1000 |
| CC(c1cccc(C(=O)NCC(O)CN2CCc3ccccc3C2)c1)N1CCN(C)CC1 (stereo not shown) [Compound 161] | 1000 to 10000 | < 100 |
| CS(=O)(=O)N1CCC(Oc2cccc(C(=O)NCC(O)CN3CCc4ccccc4C3)c2)C1 (stereo not shown) [Compound 162] | 1000 to 10000 | < 100 |
| CN1CCN(Cc2ccc(C(=O)NCC(O)CN3CCc4ccccc4C3)cc2)CC1 (stereo not shown) [Compound 163] | 1000 to 10000 | < 100 |
| O=C(NCC(O)CN1CCc2ccccc2C1)c1cccc(N2CCS(=O)(=O)CC2)c1 (stereo not shown) [Compound 164] | 1000 to 10000 | < 100 |
| CCOC(=O)CN1CCN(Cc2cccc(C(=O)NCC(O)CN3CCc4ccccc4C3)c2)CC1 (stereo not shown) [Compound 165] | 1000 to 10000 | 101 to 1000 |

| SMILES | EC50 [1] [nM] | EC50 [2] [nM] |
| --- | --- | --- |
| O=C(NC[C@H](O)CN1CCc2ccccc2C1)c1cc(NC2COC2)ncn1 [Compound 166, (S)—N-(3-(3,4-dihydroisoquinolin-2(1H)-yl)-2-hydroxypropyl)-6-(oxetan-3-ylamino)pyrimidine-4-carboxamide] | 101 to 1000 | < 100 |
| C[C@H]1CC(Nc2cccc(C(=O)NC[C@H](O)CN3CCc4ccccc4C3)c2)CCO1 (stereo partly shown) [Compound 167] | 101 to 1000 | < 100 |
| C[C@@H]1CC(Nc2cccc(C(=O)NC[C@H](O)CN3CCc4ccccc4C3)c2)CCO1 (stereo partly shown) [Compound 168] | 101 to 1000 | < 100 |
| O=C(NCC(O)CN1CCc2ccccc2C1)c1cc(NC2CCOCC2)n[nH]1 (stereo not shown) [Compound 169] | 1000 to 10000 | 101 to 1000 |
| O=C(NCC(O)CN1CCc2ccccc2C1)c1ncc[nH]1 (stereo not shown) [Compound 170] | > 20000 | 101 to 1000 |
| Cn1ccnc1C(=O)NCC(O)CN1CCc2ccccc2C1 (stereo not shown) [Compound 171] | 1000 to 10000 | 101 to 1000 |
| NC(=O)CN1CCN(Cc2cccc(C(=O)NCC(O)CN3CCc4ccccc4C3)c2)CC1 (stereo not shown) [Compound 172] | 1000 to 10000 | < 100 |
| CNC(=O)CN1CCN(Cc2cccc(C(=O)NCC(O)CN3CCc4ccccc4C3)c2)CC1 (stereo not shown) [Compound 173] | 1000 to 10000 | < 100 |
| CN(C)C(=O)CN1CCN(Cc2cccc(C(=O)NCC(O)CN3CCc4ccccc4C3)c2)CC1 (stereo not shown) [Compound 174] | 1000 to 10000 | < 100 |
| CNC(=O)CCCN1CCN(Cc2cccc(C(=O)NCC(O)CN3CCc4ccccc4C3)c2)CC1 (stereo not shown) [Compound 175] | 1000 to 10000 | 101 to 1000 |
| O=C(NCC(O)CN1CCc2ccccc2C1)c1ccc(OC2CCNC2)cc1 (stereo not shown) [Compound 176] | 1000 to 10000 | < 100 |
| CN1CCC(Oc2ccc(C(=O)NCC(O)CN3CCc4ccccc4C3)cc2)C1 (stereo not shown) [Compound 177] | 1000 to 10000 | < 100 |
| CN(C)CCCOc1ccc(C(=O)NCC(O)CN2CCc3ccccc3C2)cc1 (stereo not shown) [Compound 178] | 1000 to 10000 | < 100 |
| O=C(NCC(O)CN1CCc2ccccc2C1)c1ccc(N2CCS(=O)(=O)CC2)cc1 (stereo not shown) [Compound 179] | 1000 to 10000 | < 100 |
| O=C(NC[C@H](O)CN1CCc2ccccc2C1)c1cc(NC2CCNCC2)ncn1 [Compound 180] | 10000 to 50000 | 101 to 1000 |
| CN1CCC(Nc2cc(C(=O)NC[C@H](O)CN3CCc4ccccc4C3)ncn2)C1 (stereo partly shown) [Compound 181] | 1000 to 10000 | 101 to 1000 |
